The values that follow come from patent US9328386B2, “Markers for susceptibility to an inhibitor of an Src-family kinase” (Evotec (München) GmbH, priority 2011, dated 2016).

For one test, the system named is H1568 NSCLC cell line. The test is described as follows: Cellular growth inhibition (CellTiter Glo viability assay). To be noted: Homo sapiens, NCI-H1568, 96 h; read-out: GI50 this paper. The format is cell-based. On the technique in general: In ATP-based viability assays light output follows the ATP content of the culture.
Test [1] relates to BT-549 breast cancer cell line. The test is described as above. The class given is cell-based. The following applies: Homo sapiens, BT-549, 96 h; read-out: GI50 this paper.
The next test relates to H2172 NSCLC cell line. The following applies: dasatinib, cited from earlier work.

pIC50: −log10 of the molar value.

Turning to `Cc1nc(Nc2ncc(C(=O)Nc3c(C)cccc3Cl)s2)cc(N2CCN(CCO)CC2)n1` [dasatinib, N-(2-chloro-6-methylphenyl)-2-[[6-[4-(2-hydroxyethyl)piperazin-1-yl]-2-methylpyrimidin-4-yl]amino]-1,3-thiazole-5-carboxamide], the GI50 in the test on H1568 NSCLC cell line was 5.44 µM; in test [1], 1710 nM; in the test on H2172 NSCLC cell line (Sos et al. 2009, read-out: GI50 literature), 16.7 µM. Moreover, the pIC50 with H2172 NSCLC cell line (read-out: Class) is less than 6.00.

What is called GI50 is the concentration at which growth is held to half of that of the control.
